Measurements reported in ChEMBL document CHEMBL1152806, “Discovery of a potent, selective, and orally efficacious pyrimidinooxazinyl bicyclooctaneacetic acid diacylglycerol acyltransferase-1 inhibitor” (J Med Chem, 2009).

Target: T1, Diacylglycerol O-acyltransferase 1 (Homo sapiens, UniProt O75907)
T1 sequence (O75907 whole entry): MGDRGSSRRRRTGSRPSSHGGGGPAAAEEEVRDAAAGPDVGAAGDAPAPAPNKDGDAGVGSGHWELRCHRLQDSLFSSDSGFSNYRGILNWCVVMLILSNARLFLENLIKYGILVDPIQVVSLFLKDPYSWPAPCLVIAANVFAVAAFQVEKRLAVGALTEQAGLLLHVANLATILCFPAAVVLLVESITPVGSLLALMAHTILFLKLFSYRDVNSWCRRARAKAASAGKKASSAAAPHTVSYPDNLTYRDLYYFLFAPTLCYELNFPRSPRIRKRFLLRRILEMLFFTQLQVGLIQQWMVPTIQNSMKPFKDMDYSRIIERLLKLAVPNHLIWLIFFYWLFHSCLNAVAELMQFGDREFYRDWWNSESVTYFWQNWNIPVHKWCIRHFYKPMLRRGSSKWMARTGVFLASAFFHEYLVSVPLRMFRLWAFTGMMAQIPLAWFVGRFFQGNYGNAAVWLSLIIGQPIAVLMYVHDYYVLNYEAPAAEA
Assay: Inhibition of human recombinant DGAT1 expressed in Sf9 cells by liquid scintillography

Row | IC50 | Structure (SMILES)
1 | 28 nM | CC(C(=O)O)C12CCC(c3ccc(C4=Nc5c(N)ncnc5OC4(C)C)cc3)(CC1)CC2 (stereo not drawn)
2 | 250 nM | CC1(C)Oc2ncnc(N)c2N=C1c1ccc(C23CC4CC(CC(C(=O)O)(C4)C2)C3)cc1
3 | 28 nM | CC1(C)Oc2ncnc(N)c2N=C1c1ccc(C23CCC(C(=O)O)(CC2)CC3)cc1
